Measurements as given in patent US11666558B2, “Methods of treating intraocular pressure with activators of Tie-2” (EyePoint Pharmaceuticals, Inc., priority 2015, dated 2023).
Where two headings read alike, the source gives them in different places.

Test: Plasma concentrations and pharmacokinetic parameters after topical ocular, subcutaneous and intravitreal administration
Assay type: in vivo, New Zealand White rabbits
Conditions: plasma, plasma; for AUC(0-t): read-out: AUClast (± SE); for concentration at 0.5 hr: 0.50 hr
Description: To measure the concentration of Compound 1 in plasma and ocular tissues following topical ocular, subcutaneous, and intravitreal administration, New Zealand White rabbits were administered Compound 1, and plasma and ocular samples were collected at pre-determined time points. Compound 1 formulations were prepared fresh on each day of dosing.
New Zealand White rabbits weighing 2.5 to 3.5 kg were used on this study. Rabbits were housed one per cage. Animals were not fasted and only healthy animals with no ocular illness were used. Two rabbits per group were sacrificed at each of four ocular tissue sampling time points for a total of eight rabbits per group.
Animals were anesthetized for ocular (topical) and intravitreal dosing following the 12IA7 IACUC protocol. Each rabbit received a bolus dose of test formulation either via topical ocular administration 3 times daily on Days 1 and 2 (at 0, 6, and 12 hours), and once on Day 3 (at 0 hours) into both eyes; via intravitreal administration into both eyes once on Day 1 (at 0 hours); or via subcutaneous administration 2 times daily on Days 1 and 2 (at 0 and 8 hours) and once daily on Day 3 (at 0 hours). Doses were given within an approximately 1 hour window each day where applicable.
Each blood sample was collected on Day 3 post dose at pre-determined time points from the rabbits via an ear vessel and placed into chilled polypropylene tubes containing sodium heparin as an anticoagulant. Samples were spun by centrifuge at 4° C. and 3,000×g for 5 minutes. Samples were maintained chilled throughout processing. Each plasma sample was placed on dry ice and stored in a freezer at −60° C. to −80° C. pending bioanalysis.
An LC-MS/MS method was developed for the determination of Compound 1 in rabbit aqueous tissues (plasma, aqueous and vitreous humor) and solid ocular tissue samples. A pre-study standard curve was analyzed to determine the specificity, range, and lower limit of quantitation of the method. Plasma and tissue homogenate study samples were extracted and analyzed. All the samples were treated identically to the standards.
One eight-point standard curve was used in each analytical batch. To be accepted, each batch must have had at least five of eight standards with accuracy within ±20% of nominal, except at the lower limit of quantification (LLOQ), where ±25% was acceptable.
Pharmacokinetic parameters were calculated from the time course of the plasma concentration. The maximum plasma concentration (Cmax) and time to the maximum plasma drug concentration (Tmax) were the observed values for each concentration-time profiles. The area under the plasma drug concentration-time curve (AUClast, with last being from time 0 to the last quantifiable point) was calculated using the trapezoidal formula. The mean residence time MRTlast was calculated as a ratio of AUMClast (area under the first movement curve) to AUClast.

[1] = New Zealand White, rabbit, other: intravitreal, 1.54 mg/kg, intravitreal 2.5 mg/eye (~1.54 mg/kg), suspension
[2] = New Zealand White, rabbit, other: intravitreal, 2.5 mg, intravitreal 2.5 mg/eye (~1.54 mg/kg), suspension
[3] = New Zealand White, rabbit, other: intravitreal, 2.5 mg/eye, intravitreal 2.5 mg/eye (~1.54 mg/kg), suspension, read-out: plasma Average
[4] = New Zealand White, rabbit, other: intravitreal, 2.5 mg/eye, intravitreal 2.5 mg/eye (~1.54 mg/kg), suspension, read-out: plasma Conc., individual rabbit
[5] = New Zealand White, rabbit, sc, 5 mg/kg, subcutaneous 5 mg/kg/dose, suspension
[6] = New Zealand White, rabbit, subcutaneous, 5 mg/kg/dose, subcutaneous 5 mg/kg/dose, suspension, read-out: plasma Average
[7] = New Zealand White, rabbit, subcutaneous, 5 mg/kg/dose, subcutaneous 5 mg/kg/dose, suspension, read-out: plasma Conc., individual rabbit
[8] = intravitreal suspension, normalized by 1.54 mg/kg
[9] = subcutaneous suspension, normalized by 5 mg/kg

AUC(0-inf) [1]: 746 ng·h/mL | Cmax [1]: 25.3 ng/mL | MRT last [1]: 19.1 h | half-life [1]: 16.5 h | AUC(0-t) [1]: 707 ng·h/mL | Tmax (New Zealand White, rabbit, other: intravitreal, 1.54 mg/kg, intravitreal 2.5 mg/eye (~1.54 mg/kg), suspension, read-out: tmax): 1 h | AUC(0-inf) [2]: 746 ng·h/mL | Cmax [2]: 25.3 ± 9.3 ng/mL | MRT last [2]: 19.1 h | half-life [2]: 16.5 h | AUC(0-t) [2]: 707 ± 53.1 ng·h/mL | Tmax (New Zealand White, rabbit, other: intravitreal, 2.5 mg, intravitreal 2.5 mg/eye (~1.54 mg/kg), suspension, read-out: tmax): 1 h | concentration at 1 h (New Zealand White, rabbit, other: intravitreal, 2.5 mg/eye, intravitreal 2.5 mg/eye (~1.54 mg/kg), suspension, 1.0 hr, read-out: plasma Average): 25.3 ng/mL | concentration at 3 h [3]: 24.4 ng/mL | concentration at 3 h [4]: 28.4 ng/mL | concentration at 6 h [3]: 23.1 ng/mL | concentration at 6 h [4]: 22 ng/mL | concentration at 24 h [3]: 12.3 ng/mL | concentration at 24 h [4]: 9.96 ng/mL | concentration at 48 h [3]: 3.63 ng/mL | concentration at 48 h [4]: 2.69 ng/mL | concentration at 72 h [3]: 1.65 ng/mL | concentration at 72 h [4]: 1.83 ng/mL | AUC(0-t) [5]: 864 ± 69 ng·h/mL | Tmax (New Zealand White, rabbit, sc, 5 mg/kg, subcutaneous 5 mg/kg/dose, suspension, read-out: tmax): 0.25 h | Tmax (New Zealand White, rabbit, sc, 5 mg/kg, subcutaneous administration, suspension, read-out: Mean plasma Tmax (converted)): 0.25 h | AUC(0-inf) [5]: 1200 ng·h/mL | Cmax [5]: 395 ± 170 ng/mL | MRT last [5]: 1.58 h | half-life [5]: 2.12 h | concentration at 0.25 hr (New Zealand White, rabbit, subcutaneous, 5 mg/kg/dose, subcutaneous 5 mg/kg/dose, suspension, 0.25 hr, read-out: plasma Average): 395 ng/mL | concentration at 0.5 hr [6]: 337 ng/mL | concentration at 0.5 hr [7]: 272 ng/mL | concentration at 1 hr (New Zealand White, rabbit, subcutaneous, 5 mg/kg/dose, subcutaneous 5 mg/kg/dose, suspension, 1.0 hr, read-out: plasma Average): 295 ng/mL | concentration at 1 hr (New Zealand White, rabbit, subcutaneous, 5 mg/kg/dose, subcutaneous 5 mg/kg/dose, suspension, 1.0 hr, read-out: plasma Conc., individual rabbit): 300 ng/mL | concentration at 2 hr [6]: 206 ng/mL | concentration at 2 hr [7]: 194 ng/mL | concentration at 4 hr [6]: 110 ng/mL | concentration at 4 hr [7]: 111 ng/mL | Dose normalized AUClast [8]: 459 kg·ng·h/mL/mg | Dose normalized AUC∞ [8]: 484 kg·ng·h/mL/mg | Dose normalized AUClast (intravitreal suspension, normalized by 1.54 mg/kg, listed as Compound 1 (free acid)): 459 ± 34.5 kg·ng·h/mL/mg | Dose normalized AUClast [9]: 173 kg·ng·h/mL/mg | Dose normalized AUC∞ [9]: 240 kg·ng·h/mL/mg | Dose normalized AUClast (subcutaneous suspension, normalized by 5 mg/kg, listed as Compound 1 (free acid)): 173 ± 13.8 kg·ng·h/mL/mg
Structure (SMILES): COC(=O)N[C@@H](Cc1ccccc1)C(=O)N[C@@H](Cc1ccc(NS(=O)(=O)O)cc1)c1csc(-c2cccs2)n1 [Compound 1 free acid]
